This note sets out measurements from patent US20220387325A1, “METHOD FOR MANUFACTURING DISPERSION OF ULTRAFINE PARTICLES OF POORLY SOLUBLE SUBSTANCE” (NANO CUBE JAPAN CO., LTD., priority 2019, published 2022).

A value given as a limit tells only on which side of the number the result lay.

Usually solubility stands for the dissolved amount per volume that the medium holds.

Data set [1] can be described thus: physchem. Particulars: for solubility at 1 h: water, thermodynamic from solid. As for the experimental part: To 100 mL of the liquid thus obtained, 100 mL of water was added and acetone was distilled off by concentration under reduced pressure to obtain a water dispersion of ultrafine particles of coenzyme Q10.
To 100 mL of the liquid thus obtained, 100 mL of water was added and acetone was distilled off by concentration under reduced pressure to obtain a water dispersion of ultrafine particles of busulfan. […] The solubility was measured in the same manner as in Example 1, except that busulfan was used in place of coenzyme Q10.
To 100 mL of the liquid thus obtained, 100 mL of water was added and ethanol was distilled off by concentration under reduced pressure to obtain a water dispersion of ultrafine particles of docetaxel. […] The solubility was measured in the same manner as in Example 1, except that docetaxel was used in place of coenzyme Q10.
To 100 mL of the liquid thus obtained, 100 mL of water was added and ethanol was distilled off by concentration under reduced pressure to obtain a water dispersion of ultrafine particles of paclitaxel. […] The solubility was measured in the same manner as in Example 1, except that paclitaxel was used in place of coenzyme Q10.
To 100 mL of the liquid thus obtained, 100 mL of water was added and ethanol was distilled off by concentration under reduced pressure to obtain a water dispersion of ultrafine particles of azadirachtin.
To 100 mL of the liquid thus obtained, 100 mL of 1-butanol was added and water was distilled off by concentration under reduced pressure to obtain a 1-butanol dispersion of ultrafine particles of ascorbic acid.

A short description of data set [2]: Solubility in good solvent. The note with it: for solubility: organic solvent or mixture.
Data set [3] in a line: physchem. The note with it: 25 °C, organic solvent or mixture.

As to `CC(=O)O[C@H]1C(=O)[C@@]2(C)[C@H]([C@H](OC(=O)c3ccccc3)[C@]3(O)C[C@H](OC(=O)[C@H](O)[C@@H](NC(=O)c4ccccc4)c4ccccc4)C(C)=C1C3(C)C)[C@]1(OC(C)=O)CO[C@@H]1C[C@@H]2O` [paclitaxel], the solubility at 1 h in data set [1] (25 °C) is ≤ 0.01 mg/mL. In data set [2] (ethanol, 25 °C), the solubility is ≥ 30 mg/mL.

On to `C/C=C(\C)C(=O)O[C@H]1C[C@@H](OC(C)=O)[C@@]2(C(=O)OC)CO[C@H]3[C@@H](O)[C@@](C)([C@]45O[C@@]4(C)[C@H]4C[C@@H]5O[C@@H]5OC=C[C@@]54O)[C@H]4[C@]1(CO[C@]4(O)C(=O)OC)[C@@H]32` [azadirachtin], for which, in data set [1] (20 °C), the solubility at 1 h was ≤ 0.1 mg/mL. Also, in data set [3], the solubility was ≥ 30 mg/mL.

Regarding `CC(=O)O[C@@]12CO[C@@H]1C[C@H](O)[C@@]1(C)C(=O)[C@H](O)C3=C(C)[C@@H](OC(=O)[C@H](O)[C@@H](NC(=O)OC(C)(C)C)c4ccccc4)C[C@@](O)([C@@H](OC(=O)c4ccccc4)[C@H]21)C3(C)C` [docetaxel], the solubility at 1 h in data set [1] (25 °C) is ≤ 0.01 mg/mL. Besides, the solubility in data set [2] (ethanol, 60 °C) is ≥ 20 mg/mL.

As for `CS(=O)(=O)OCCCCOS(C)(=O)=O` [busulfan], the solubility at 1 h in data set [1] (25 °C) was ≤ 0.01 mg/mL. Also, the solubility in data set [2] (acetone, 50 °C) is ≥ 30 mg/mL.

Consider `COC1=C(OC)C(=O)C(C/C=C(\C)CC/C=C(\C)CC/C=C(\C)CC/C=C(\C)CC/C=C(\C)CC/C=C(\C)CC/C=C(\C)CC/C=C(\C)CC/C=C(\C)CCC=C(C)C)=C(C)C1=O` [coenzyme Q10], for which the solubility in water in data set [1] was ≤ 0.01 mg/mL. Also, the solubility in acetone in data set [2] (acetone, 25° C.) is ≥ 30 mg/mL.
